Converted amounts (≈) assume the structure as drawn.
Tested on: Mycobacterium tuberculosis
Assay: Antimycobacterial activity against Mycobacterium tuberculosis H37Rv ATCC 27294 by radiorespirometric bioassay
Assay type: functional

Structure (SMILES) | MIC [µg/mL]
CC(C)=CCC[C@H]1C(=O)O[C@H]2C[C@]3(C)C4=C[C@@H](O)[C@H]5C(C)(C)C(=O)CC[C@]5(C)[C@H]4CC[C@@]3(C)[C@@H]21 | 4 (≈ 8.53 µM)
CC(=O)[C@H](CCC=C(C)C)[C@@H]1[C@@H](O)C[C@]2(C)C3=CC[C@H]4C(C)(C)C(=O)CC[C@]4(C)[C@H]3CC[C@@]12C [KULONATE] | 16 (≈ 34.1 µM)
CC(C)=CCC[C@H]1C(=O)O[C@H]2C[C@]3(C)C4=CC[C@H]5C(C)(C)C(=O)CC[C@]5(C)[C@H]4C[C@@H](O)[C@@]3(C)[C@@H]21 | 16 (≈ 34.1 µM)
